Measurements reported in ChEMBL document CHEMBL1201862, “PubChem BioAssay data set” (2004).
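A five-concentration, 48-hour dose response in 96-well plates underlies each endpoint, interpolated linearly between surrounding concentrations. GI50 is the concentration that inhibits growth by half.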 Activity calls are given as the source filed them. Cut-off read from the data, not from the text of the source: active = GI50 up to about 1.1 µM and inactive = higher.

Assays:
Assay in all cases: DTP human tumour cell line panel, 48 h
786-0 = tested on: 786-0
A498 = tested on: A498
A549 = tested on: A549
ACHN = tested on: ACHN
BT-549 = tested on: BT-549
CAKI-1 = tested on: CAKI-1
CCRF-CEM = tested on: CCRF-CEM
COLO 205 = tested on: COLO 205
DU-145 = tested on: DU-145
EKVX = tested on: EKVX
HCC 2998 = tested on: HCC 2998
HCT-116 = tested on: HCT-116
HCT-15 = tested on: HCT-15
HL-60 = tested on: HL-60
HOP-62 = tested on: HOP-62
HT-29 = tested on: HT-29
Hs-578T = tested on: Hs-578T
IGROV-1 = tested on: IGROV-1
K562 = tested on: K562
KM12 = tested on: KM12
LOX IMVI = tested on: LOX IMVI
M14 = tested on: M14
MCF7 = tested on: MCF7
MDA-MB-231 = tested on: MDA-MB-231
MDA-MB-435 = tested on: MDA-MB-435
MDA-N = tested on: MDA-N
MOLT-4 = tested on: MOLT-4
Malme-3M = tested on: Malme-3M
NCI-H226 = tested on: NCI-H226
NCI-H23 = tested on: NCI-H23
NCI-H460 = tested on: NCI-H460
NCI-H522 = tested on: NCI-H522
NCI/ADR-RES = tested on: NCI/ADR-RES
OVCAR-3 = tested on: OVCAR-3
OVCAR-5 = tested on: OVCAR-5
OVCAR-8 = tested on: OVCAR-8
PC-3 = tested on: PC-3
RPMI-8226 = tested on: RPMI-8226
RXF 393 = tested on: RXF 393
SF-268 = tested on: SF-268
SF-295 = tested on: SF-295
SF-539 = tested on: SF-539
SK-MEL-28 = tested on: SK-MEL-28
SK-MEL-2 = tested on: SK-MEL-2
SK-MEL-5 = tested on: SK-MEL-5
SK-OV-3 = tested on: SK-OV-3
SN12C = tested on: SN12C
SNB-19 = tested on: SNB-19
SR = tested on: SR
SW-620 = tested on: SW-620
T47D = tested on: T47D
TK-10 = tested on: TK-10
U-251 = tested on: U-251
UACC-257 = tested on: UACC-257
UACC-62 = tested on: UACC-62
UO-31 = tested on: UO-31
HOP-92 = tested on: HOP-92
OVCAR-4 = tested on: OVCAR-4
SNB-75 = tested on: SNB-75

Measured: GI50

O=C1NC2CCCCC2NC1=C(C(=O)c1ccccc1)C(=O)c1ccccc1 (centres undefined)
23.3 µM: HCT-15
inactive: 786-0 > 100 µM | A498 > 100 µM | A549 34 µM | ACHN 33.6 µM | BT-549 10.9 µM | CAKI-1 36.4 µM | CCRF-CEM 11 µM | COLO 205 32.8 µM | DU-145 > 100 µM | EKVX 70.6 µM | HCC 2998 70.8 µM | HCT-116 40.7 µM | HL-60 46.7 µM | HOP-62 52.6 µM | HT-29 36.8 µM | Hs-578T 62.8 µM | IGROV-1 26.3 µM | K562 35.5 µM | KM12 42.7 µM | LOX IMVI 38.1 µM | M14 66.4 µM | MCF7 16.9 µM | MDA-MB-231 24.3 µM | MDA-MB-435 46.6 µM | MDA-N 70.3 µM | MOLT-4 20.5 µM | Malme-3M > 100 µM | NCI-H226 12.5 µM | NCI-H23 22.4 µM | NCI-H460 27.4 µM | NCI-H522 18.9 µM | NCI/ADR-RES 29.2 µM | OVCAR-3 67.5 µM | OVCAR-5 > 100 µM | OVCAR-8 25.5 µM | PC-3 53 µM | RPMI-8226 28.8 µM | RXF 393 > 100 µM | SF-268 69.2 µM | SF-295 40.8 µM | SF-539 43.2 µM | SK-MEL-28 78.2 µM | SK-MEL-2 33.6 µM | SK-MEL-5 27.5 µM | SK-OV-3 25.4 µM | SN12C 20.7 µM | SNB-19 65.9 µM | SR 27.2 µM | SW-620 39.3 µM | T47D > 100 µM | TK-10 84.1 µM | U-251 26.6 µM | UACC-257 95.7 µM | UACC-62 22.8 µM | UO-31 26.9 µM

Oc1cnnc2nc3ccccc3n12
inactive: 786-0 > 100 µM | A498 > 100 µM | A549 > 100 µM | ACHN > 100 µM | BT-549 > 100 µM | CAKI-1 > 100 µM | CCRF-CEM > 100 µM | COLO 205 > 100 µM | DU-145 > 100 µM | EKVX 34.8 µM | HCC 2998 > 100 µM | HCT-116 > 100 µM | HL-60 > 100 µM | HOP-62 > 100 µM | HOP-92 > 100 µM | HT-29 > 100 µM | Hs-578T > 100 µM | IGROV-1 > 100 µM | KM12 > 100 µM | LOX IMVI 85.5 µM | M14 > 100 µM | MCF7 > 100 µM | MDA-MB-231 > 100 µM | MDA-MB-435 > 100 µM | MDA-N > 100 µM | MOLT-4 > 100 µM | Malme-3M > 100 µM | NCI-H226 > 100 µM | NCI-H23 > 100 µM | NCI-H460 > 100 µM | NCI-H522 > 100 µM | NCI/ADR-RES > 100 µM | OVCAR-4 > 100 µM | OVCAR-5 > 100 µM | OVCAR-8 > 100 µM | PC-3 > 100 µM | RXF 393 > 100 µM | SF-268 > 100 µM | SF-295 > 100 µM | SF-539 > 100 µM | SK-MEL-28 > 100 µM | SK-MEL-2 > 100 µM | SK-MEL-5 > 100 µM | SN12C > 100 µM | SNB-19 > 100 µM | SNB-75 > 100 µM | SW-620 > 100 µM | T47D > 100 µM | TK-10 > 100 µM | U-251 > 100 µM | UACC-257 > 100 µM | UO-31 > 100 µM
> 100 µM: HCT-15
